# From patent US7320804B2, “Cough depressant composition containing iron for angiotensin-converting enzyme inhibitor inducing cough” (Samsung Life Public Welfare Foundation Samsund Medical …, priority 2000, dated 2008)
# Where two headings read alike, the source gives them in different places.
# Tested on: ACEI-induced cough
# Settings: for Change of cough score, treatment versus observation period (in words): Wilcoxon's signed rank sum test, iron taking group; for Degree of cough, mean daily cough score: 10 patients on ACEI, observation period 6.14 ± 1.41
# Protocol: The research pertaining to the ACEI-induced cough depressant effect by the iron was carried out with nineteen patients taking ACEI. These subjects were patients who developed cough as a result of the side effect caused by taking ACEI. The experiment period was divided into the observation period and the treatment period. 10 of the patients took iron and 9 of the patients took placebo.
# The effect of the cough depressant containing iron of the present invention was tested. The cough depressant composition used in the test was ferrous sulphate. Anemia medicine sold as Feroba (trademark), whose ferrous sulphate was removed, was used as the placebo. The 19 tested patients had developed persistent dry cough while taking ACEI for various reasons. They include 6 men and 13 women, whose mean age was 59.9±12.2 years. The patients were divided into groups; the treatment group, which comprised 10 patients taking iron, and the control group, comprising 9 patients taking placebo. The characteristics of the patients are denoted in Table 1. All the patients gave informed consent, and the test was approved by the ethical committee of the Samsung Medical Center and Samsung Biomedical Research Center, Seoul, Korea.
# ACEI-induced cough was defined as dry cough that occurred with ACEI use that subsided in seven days after discontinuation of the drug, and reappeared within 48 hours after the re-introduction of the drug and with no abnormality in the lungs and the bronchi.
# 19 patients completed a cough diary during a 2-week observation period while taking ACEI only. […] Each day was divided into two 12-hour periods. The daytime period began at 8 A.M., and the nighttime period, vice versa. Patients recorded the cough score for each period.
# At the end of the observation period, blood samples were drawn from the patient for evaluation of hemoglobin level, hematocrit, iron concentration, total iron binding capacity (“TIBC”), and ferritin concentration. After sampling, they were randomized to either an iron taking group or placebo taking group. 256 mg of ferrous sulfate (of which 80 mg is ferrate) was daily administered to the iron taking group. During the four weeks of the treatment period, subjects were asked to fill in a cough diary in the identical way that they completed the diary in the observation period. After four weeks of the treatment period, blood sampling was repeated for the same evaluation (hemoglobin level, hematocrit, iron concentration, total iron binding capacity (“TIBC”) and ferritin concentration) that was performed in the initiation of the treatment period.
# Cough scores from the last week of the observation period and the last week of the treatment period were compared and evaluated. The total sum of the cough scores were calculated from cough scores during the daytime and the nighttime recorded from the range of 0 to 4 for the last week of the observation period and the treatment period, and mean daily cough scores were calculated by dividing the total amount by days. Also, the cough score during the daytime and the nighttime was compared separately. […] The two groups were compared using Wilcoxon's signed rank sum test.
smiles,measurement,setting,value
"O=S(=O)([O-])[O-].[Fe+2] [Iron, ferrous sulphate]","Change of cough score, treatment versus observation period (in words)",listed as ferrous sulphate,significantly reduced
same,"Change of cough score, treatment versus observation period (in words)",listed as iron,significant reduction of dry cough
same,"Degree of cough, mean daily cough score","last week of 4-week treatment period, 256 mg ferrous sulfate daily, mean ± SD",3.39 ± 2.20 score
same,"Degree of cough, mean daily cough score","last week of 4-week treatment period, 256 mg ferrous sulfate daily, mean ± SD, listed as iron",3.39±2.20 score
same,"Degree of cough, daytime cough score","last week of 4-week treatment period, 256 mg ferrous sulfate daily, mean ± SD, observation period 2.86 ± 0.86",1.51 ± 1.00 score
same,"Degree of cough, nighttime cough score","last week of 4-week treatment period, 256 mg ferrous sulfate daily, mean ± SD, observation period 3.29 ± 0.73",1.87 ± 1.24 score
same,Number of patients showing almost complete abolishment of cough,of 10 patients in the iron taking group,three
same,Number of patients showing reduction in cough (decrease in cough score),"of 10 patients who took iron, treatment versus observation period",9 patients
